Measurements as given in PubChem BioAssay AID192 (DTP/NCI, 2004).
Where “and” joins values, the source holds several entries; their conditions need not be identical. Identical values can stand only once. Inconclusive results and toxic doses are left out.

System: BDF1 mice, B16 melanoma ip, median survival T/C
Test: NCI In Vivo Anticancer Drug Screen. Data for tumor model B16 Melanoma (intraperitoneal) in B6D2F1 (BDF1) mice
Settings: endpoint: median survival time, higher = longer survival
Method: The antitumor activity of compounds was measured in mice bearing transplantable tumors. Survival or tumor size were measured and the results are expressed as the measurement made in the treated group (T) divided by the measurement made in the vehicle treated control group (C). The tumor model used in this assay is B16 Melanoma (intraperitoneal) in B6D2F1 (BDF1) mice

[1] = dose: 12.5 mg/kg/injection, schedule: Q01DX009 (ip), vehicle: Klucel (hydroxypropylcellulose) (HPC)
[2] = dose: 16.0 mg/kg/injection, schedule: Q01DX009 (ip), vehicle: Klucel (hydroxypropylcellulose) (HPC)
[3] = dose: 32.0 mg/kg/injection, schedule: Q01DX009 (ip), vehicle: Klucel (hydroxypropylcellulose) (HPC)
[4] = dose: 25.0 mg/kg/injection, schedule: Q01DX009 (ip), vehicle: Klucel (hydroxypropylcellulose) (HPC)
[5] = dose: 50.0 mg/kg/injection, schedule: Q01DX009 (ip), vehicle: Klucel (hydroxypropylcellulose) (HPC)
[6] = dose: 100.0 mg/kg/injection, schedule: Q01DX009 (ip), vehicle: Klucel (hydroxypropylcellulose) (HPC)
[7] = dose: 25.0 mg/kg/injection, schedule: Q04DX003 (ip), vehicle: saline
[8] = dose: 50.0 mg/kg/injection, schedule: Q04DX003 (ip), vehicle: saline
[9] = dose: 100.0 mg/kg/injection, schedule: Q01DX009 (ip), vehicle: saline with Tween-80
[10] = dose: 200.0 mg/kg/injection, schedule: Q01DX009 (ip), vehicle: saline with Tween-80
[11] = dose: 12.5 mg/kg/injection, schedule: Q01DX009 (ip), vehicle: saline with Tween-80
[12] = dose: 25.0 mg/kg/injection, schedule: Q01DX009 (ip), vehicle: saline with Tween-80
[13] = dose: 50.0 mg/kg/injection, schedule: Q01DX009 (ip), vehicle: saline with Tween-80
[14] = dose: 12.5 mg/kg/injection, schedule: Q01DX009 (ip), vehicle: other
[15] = dose: 25.0 mg/kg/injection, schedule: Q01DX009 (ip), vehicle: other
[16] = dose: 2.0 mg/kg/injection, schedule: Q01DX009 (ip), vehicle: saline
[17] = dose: 12.5 mg/kg/injection, schedule: Q01DX009 (ip), vehicle: saline

For CCOC(=O)C1C(=O)C(CN(CCCl)CCCl)C(=O)C(C(=O)OCC)C1c1ccc(O)cc1 (stereo not given), the T/C [1] was 158 % of control.
With C=C1C(=O)OC2C=C(C)CC3C=C(CCC=C(C)CCC12)C(=O)O3 (stereo not given) the T/C (dose: 4.0 mg/kg/injection, schedule: Q01DX009 (ip), vehicle: Klucel (hydroxypropylcellulose) (HPC)) was 90 % of control, the T/C (dose: 8.0 mg/kg/injection, schedule: Q01DX009 (ip), vehicle: Klucel (hydroxypropylcellulose) (HPC)) was 105 % of control and the T/C [2] was 116 % of control. The T/C [3] was 101 % of control.
With Cc1nonc1-c1ccc2c(c1)OCO2 the T/C [4] was 98 % of control, the T/C [5] was 93 % of control and the T/C [6] was 91 % of control. The T/C (dose: 200.0 mg/kg/injection, schedule: Q01DX009 (ip), vehicle: Klucel (hydroxypropylcellulose) (HPC)) was 99 % of control.
Cc1cccnc1C was tested, and the T/C [7] was 103 % of control, the T/C [8] was 104 % of control and the T/C (dose: 100.0 mg/kg/injection, schedule: Q04DX003 (ip), vehicle: saline) was 112 % of control.
For CCN(C(=O)Nc1cccc(Cl)c1)c1ccccc1, the T/C [9] was 102 % of control, the T/C [10] was 100 % of control and the T/C (dose: 400.0 mg/kg/injection, schedule: Q01DX009 (ip), vehicle: saline with Tween-80) was 110 % of control.
In the case of COc1ccc(N=C(c2ccccc2)c2ccccc2)cc1, the T/C (dose: 100.0 mg/kg/injection, schedule: Q04DX003 (ip), vehicle: saline with Tween-80) is reported as 95 % of control, the T/C (dose: 200.0 mg/kg/injection, schedule: Q04DX003 (ip), vehicle: saline with Tween-80) is reported as 86 % of control and the T/C (dose: 400.0 mg/kg/injection, schedule: Q04DX003 (ip), vehicle: saline with Tween-80) is reported as 90 % of control.
NN(CC1=COc2ccccc2O1)Cc1ccccc1 was tested, and the T/C [1] was 94 % of control, the T/C [4] was 94 % of control and the T/C [5] was 91 % of control. For the same compound, the T/C [6] was 105 % of control and the T/C (dose: 200.0 mg/kg/injection, schedule: Q04DX003 (ip), vehicle: Klucel (hydroxypropylcellulose) (HPC)) was 91 % of control.
With Cc1nc2ccc(CCN3CCN(c4ccccc4Cl)CC3)cc2[nH]1 the T/C (dose: 4.12 mg/kg/injection, schedule: Q01DX009 (ip), vehicle: saline) was 90 % of control and the T/C (dose: 8.25 mg/kg/injection, schedule: Q01DX009 (ip), vehicle: saline) was 92 % of control.
In the case of O=C1CC(C(=O)N2Cc3cc4ccccc4nc3C2)CO1 (stereo not given), the T/C (dose: 6.25 mg/kg/injection, schedule: Q01DX009 (ip), vehicle: saline with Tween-80) is reported as 111 % of control, the T/C [11] is reported as 115 % of control and the T/C [12] is reported as 113 % of control. The T/C [13] was 109 % of control, the T/C [9] was 116 % of control and the T/C [10] was 100 % of control.
In the case of Clc1ccc(C[P+](c2ccccc2)(c2ccccc2)c2ccccc2)cc1Cl, the T/C (dose: 3.12 mg/kg/injection, schedule: Q01DX009 (ip), vehicle: Klucel (hydroxypropylcellulose) (HPC)) is reported as 103 % of control, the T/C (dose: 6.25 mg/kg/injection, schedule: Q01DX009 (ip), vehicle: Klucel (hydroxypropylcellulose) (HPC)) is reported as 101 % of control and the T/C [1] is reported as 107 % of control.
For O=C1NC(=O)C(=Cc2cc3c(cc2Br)OCO3)C(=O)N1, the T/C [11] was 97 % of control, the T/C [12] was 94 % of control and the T/C [13] was 94 % of control.
With CN(N=O)C(=O)N[C@@H](C=O)[C@@H](O)[C@H](O)[C@H](O)CO the T/C (dose: 12.5 mg/kg/injection, schedule: Q01DX009 (ip), vehicle: citric acid) was 105 % of control, the T/C [14] was 109 % of control and 117 % of control (2×) and the T/C (dose: 25.0 mg/kg/injection, schedule: Q01DX009 (ip), vehicle: citric acid) was 106 % of control. The T/C [15] was 105 % of control and 118 % of control and 124 % of control, the T/C (dose: 37.5 mg/kg/injection, schedule: Q04DX003 (ip), vehicle: saline) was 90 % of control and 115 % of control and the T/C (dose: 50.0 mg/kg/injection, schedule: Q01DX009 (ip), vehicle: citric acid) was 117 % of control. For the same compound, the T/C (dose: 75.0 mg/kg/injection, schedule: Q04DX003 (ip), vehicle: saline) was 118 % of control, the T/C (dose: 150.0 mg/kg/injection, schedule: Q04DX003 (ip), vehicle: saline) was 116 % of control and the T/C (dose: 300.0 mg/kg/injection, schedule: Q04DX003 (ip), vehicle: saline) was 45 % of control and 118 % of control.
Cc1cccc(N2CCN(CCC#N)CC2)c1 was tested, and the T/C [12] was 102 % of control and the T/C [13] was 108 % of control.
With CCN(CC)Cc1c(C)cc2oc(=O)c3c(c2c1O)CCCC3 the T/C [2] was 98 % of control, the T/C [3] was 100 % of control and the T/C (dose: 64.0 mg/kg/injection, schedule: Q01DX009 (ip), vehicle: Klucel (hydroxypropylcellulose) (HPC)) was 88 % of control.
O=C(O)C1(C(=O)O)CCC1.[NH2-].[NH2-].[Pt+2] was tested, and the T/C [16] was 112 % of control, the T/C (dose: 4.0 mg/kg/injection, schedule: Q01DX009 (ip), vehicle: saline) was 115 % of control and the T/C (dose: 6.25 mg/kg/injection, schedule: Q01DX009 (ip), vehicle: other) was 123 % of control. For the same compound, the T/C (dose: 8.0 mg/kg/injection, schedule: Q01DX009 (ip), vehicle: saline) was 150 % of control, the T/C [14] was 176 % of control and the T/C (dose: 16.0 mg/kg/injection, schedule: Q01DX009 (ip), vehicle: saline) was 176 % of control. For the same compound, the T/C [15] was 160 % of control and 164 % of control and the T/C (dose: 32.0 mg/kg/injection, schedule: Q01DX009 (ip), vehicle: saline) was 176 % of control.
In the case of COc1cc([NH-])c([NH-])cc1OC.[Cl][Pt+2][Cl], the T/C (dose: 10.0 mg/kg/injection, schedule: Q01DX009 (ip), vehicle: saline with Tween-80) is reported as 97 % of control, the T/C (dose: 20.0 mg/kg/injection, schedule: Q01DX009 (ip), vehicle: saline with Tween-80) is reported as 104 % of control and the T/C (dose: 40.0 mg/kg/injection, schedule: Q01DX009 (ip), vehicle: saline with Tween-80) is reported as 103 % of control. For the same compound, the T/C (dose: 80.0 mg/kg/injection, schedule: Q01DX009 (ip), vehicle: saline with Tween-80) was 104 % of control and the T/C (dose: 160.0 mg/kg/injection, schedule: Q01DX009 (ip), vehicle: saline with Tween-80) was 94 % of control.
In the case of Cc1cc(SCC(=O)c2ccc(Br)cc2)cc(C)[o+]1, the T/C (dose: 6.25 mg/kg/injection, schedule: Q01DX009 (ip), vehicle: saline) is reported as 111 % of control and 122 % of control, the T/C [17] is reported as 112 % of control and 119 % of control and the T/C (dose: 25.0 mg/kg/injection, schedule: Q01DX009 (ip), vehicle: saline) is reported as 98 % of control and 118 % of control. The T/C (dose: 50.0 mg/kg/injection, schedule: Q01DX009 (ip), vehicle: saline) was 106 % of control and the T/C (dose: 100.0 mg/kg/injection, schedule: Q01DX009 (ip), vehicle: saline) was 95 % of control.
FC(F)(F)c1ccc2c(c1)N(CCCNCCN1CCOCC1)c1ccccc1S2 was tested, and the T/C (dose: 1.56 mg/kg/injection, schedule: Q01DX009 (ip), vehicle: saline) was 105 % of control, the T/C (dose: 1.56 mg/kg/injection, schedule: Q04DX003 (ip), vehicle: saline) was 93 % of control and 95 % of control and the T/C (dose: 3.12 mg/kg/injection, schedule: Q01DX009 (ip), vehicle: saline) was 88 % of control. The T/C (dose: 3.12 mg/kg/injection, schedule: Q04DX003 (ip), vehicle: saline) was 102 % of control, the T/C (dose: 6.25 mg/kg/injection, schedule: Q04DX003 (ip), vehicle: saline) was 100 % of control and 105 % of control and the T/C [17] was 100 % of control. The T/C (dose: 12.5 mg/kg/injection, schedule: Q04DX003 (ip), vehicle: saline) was 93 % of control and 107 % of control, the T/C [7] was 99 % of control and 100 % of control and the T/C [8] was 90 % of control.
For CO[C@H]1C[C@H](O[C@H]2CC[C@]3(C=O)[C@H]4CC[C@]5(C)[C@@H](C6=CC(=O)OC6)CC[C@]5(O)[C@@H]4CC[C@]3(O)C2)O[C@H](C)[C@H]1O[C@@H]1O[C@H](CO)[C@@H](O)[C@H](O)[C@H]1O, the T/C (dose: 0.25 mg/kg/injection, schedule: Q01DX009 (ip), vehicle: saline) was 105 % of control, the T/C (dose: 0.25 mg/kg/injection, schedule: Q04DX003 (ip), vehicle: saline) was 100 % of control and the T/C (dose: 0.5 mg/kg/injection, schedule: Q01DX009 (ip), vehicle: saline) was 100 % of control. For the same compound, the T/C (dose: 0.5 mg/kg/injection, schedule: Q04DX003 (ip), vehicle: saline) was 102 % of control, the T/C (dose: 1.0 mg/kg/injection, schedule: Q01DX009 (ip), vehicle: saline) was 100 % of control and the T/C (dose: 1.0 mg/kg/injection, schedule: Q04DX003 (ip), vehicle: saline) was 105 % of control. The T/C [16] was 94 % of control.
